The structures appear in SMILES notation.

The nature of data set [1]: Solubility of CMT-3 in aqueous solutions (statement). Type of data set: physicochemical.
Data set [2] has as its system IL-1β. The conditions noted are these: leucocytes isolated from patients within 24 h of the onset of direct ARDS; cited from earlier work.

As for `NC(=O)C1=C(O)CC2CC3Cc4cccc(O)c4C(=O)C3=C(O)[C@]2(O)C1=O` (some centres unmarked) [CMT-3, 6-demethyl-6-deoxy-4-de(dimethylamino)tetracycline], the “Solubility in aqueous solutions” value in data set [1] is given as “barely dissolved in aqueous solutions”. Also, the “IL-1β production in alveolar leucocytes” value in data set [2] was “significantly suppressed”.

The record behind these values is patent US20250177318A1, “CMT-3 FORMULATIONS AND METHODS OF USING THE SAME” (The Research Foundation for the State University of New York, priority 2022, published 2025).
